Experimental data as given in ChEMBL document CHEMBL1201862, “PubChem BioAssay data set” (2004).
Calls of active or inactive are those of the source.

Key:
Cytochrome P450 3A4 = Cytochrome P450 3A4 (Homo sapiens, UniProt P08684);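 further: CYP3A4 tested as one member of a cytochrome P450 panel screen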
HEK293 = experiment: cells; assay type: functional, cell-based; conditions: Homo sapiens
Cytochrome P450 2D6 = Cytochrome P450 2D6 (Homo sapiens, UniProt P10635);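 further: CYP2D6 member of a cytochrome P450 panel assay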
Chain of Cytochrome P450 2D6 (P10635 whole entry): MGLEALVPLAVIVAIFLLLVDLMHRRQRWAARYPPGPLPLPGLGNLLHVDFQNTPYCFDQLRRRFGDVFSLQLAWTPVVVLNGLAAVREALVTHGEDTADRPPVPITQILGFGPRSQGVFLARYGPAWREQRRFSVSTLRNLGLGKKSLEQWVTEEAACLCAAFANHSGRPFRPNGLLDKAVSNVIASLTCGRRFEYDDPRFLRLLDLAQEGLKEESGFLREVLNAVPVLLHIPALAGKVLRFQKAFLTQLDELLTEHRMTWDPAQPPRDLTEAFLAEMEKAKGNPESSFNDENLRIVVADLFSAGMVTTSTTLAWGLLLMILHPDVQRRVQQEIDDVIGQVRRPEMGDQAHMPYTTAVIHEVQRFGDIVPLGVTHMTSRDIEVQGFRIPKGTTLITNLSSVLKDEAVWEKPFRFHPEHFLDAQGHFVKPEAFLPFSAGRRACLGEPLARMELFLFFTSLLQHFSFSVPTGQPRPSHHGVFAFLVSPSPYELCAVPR

[1] = target: T1, Nuclear receptor subfamily 0 group B member 1 (Homo sapiens, UniProt P51843); experiment: Luminescence-based cell-based high throughput dose response assay for inhibitors of the orphan nuclear receptor subfamily 0, group B, member 1 (DAX1; NR0B1). [Related pubchem assays (depositor defined):AID504766, AID504790]; assay type: functional
T1 sequence (P51843 whole entry): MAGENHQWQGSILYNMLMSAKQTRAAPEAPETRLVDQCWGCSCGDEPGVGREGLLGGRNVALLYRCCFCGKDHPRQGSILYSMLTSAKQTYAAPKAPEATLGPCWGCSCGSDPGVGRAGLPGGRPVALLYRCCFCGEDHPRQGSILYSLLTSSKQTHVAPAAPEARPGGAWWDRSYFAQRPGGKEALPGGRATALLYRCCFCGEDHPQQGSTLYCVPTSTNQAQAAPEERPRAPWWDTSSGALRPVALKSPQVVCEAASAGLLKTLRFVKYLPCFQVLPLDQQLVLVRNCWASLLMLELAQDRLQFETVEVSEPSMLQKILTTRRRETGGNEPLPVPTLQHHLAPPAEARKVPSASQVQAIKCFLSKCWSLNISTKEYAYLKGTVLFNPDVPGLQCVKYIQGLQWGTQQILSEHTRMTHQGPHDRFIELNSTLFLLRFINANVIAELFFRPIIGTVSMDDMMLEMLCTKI

[2] = target: T2, Sentrin-specific protease 8 (Homo sapiens, UniProt Q96LD8); assay type: functional;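 further: luminescence read-out of SENP8 inhibition, dose-response confirmation following an ultra-high-throughput screen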
T2 sequence (Q96LD8 whole entry): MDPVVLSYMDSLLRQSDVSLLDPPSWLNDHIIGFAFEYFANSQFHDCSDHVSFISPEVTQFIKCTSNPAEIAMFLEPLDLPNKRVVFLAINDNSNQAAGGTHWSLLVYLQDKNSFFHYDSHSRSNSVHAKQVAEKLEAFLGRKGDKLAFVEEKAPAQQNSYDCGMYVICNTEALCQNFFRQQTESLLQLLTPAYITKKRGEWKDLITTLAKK

Caspase-3 = target: T3, Caspase-3 (Homo sapiens, UniProt P42574); assay type: functional;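 further: Dose-response selectivity test against caspase-3 for candidate inhibitors of sentrin-specific proteases (SENPs)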
T3 sequence (P42574 whole entry): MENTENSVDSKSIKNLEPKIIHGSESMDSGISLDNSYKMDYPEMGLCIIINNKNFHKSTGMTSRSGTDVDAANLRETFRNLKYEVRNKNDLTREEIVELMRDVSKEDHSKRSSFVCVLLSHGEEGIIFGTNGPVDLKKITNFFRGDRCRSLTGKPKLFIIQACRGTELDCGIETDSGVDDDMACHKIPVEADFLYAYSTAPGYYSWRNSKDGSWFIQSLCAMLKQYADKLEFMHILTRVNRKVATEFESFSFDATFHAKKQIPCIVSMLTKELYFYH

[3] = target: T4, Sentrin-specific protease 7 (Homo sapiens, UniProt Q9BQF6); assay type: functional;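 further: Luminescence-based dose-response confirmation of ultra-high-throughput screening hits, measuring inhibition of SENP7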
T4 sequence (Q9BQF6 whole entry): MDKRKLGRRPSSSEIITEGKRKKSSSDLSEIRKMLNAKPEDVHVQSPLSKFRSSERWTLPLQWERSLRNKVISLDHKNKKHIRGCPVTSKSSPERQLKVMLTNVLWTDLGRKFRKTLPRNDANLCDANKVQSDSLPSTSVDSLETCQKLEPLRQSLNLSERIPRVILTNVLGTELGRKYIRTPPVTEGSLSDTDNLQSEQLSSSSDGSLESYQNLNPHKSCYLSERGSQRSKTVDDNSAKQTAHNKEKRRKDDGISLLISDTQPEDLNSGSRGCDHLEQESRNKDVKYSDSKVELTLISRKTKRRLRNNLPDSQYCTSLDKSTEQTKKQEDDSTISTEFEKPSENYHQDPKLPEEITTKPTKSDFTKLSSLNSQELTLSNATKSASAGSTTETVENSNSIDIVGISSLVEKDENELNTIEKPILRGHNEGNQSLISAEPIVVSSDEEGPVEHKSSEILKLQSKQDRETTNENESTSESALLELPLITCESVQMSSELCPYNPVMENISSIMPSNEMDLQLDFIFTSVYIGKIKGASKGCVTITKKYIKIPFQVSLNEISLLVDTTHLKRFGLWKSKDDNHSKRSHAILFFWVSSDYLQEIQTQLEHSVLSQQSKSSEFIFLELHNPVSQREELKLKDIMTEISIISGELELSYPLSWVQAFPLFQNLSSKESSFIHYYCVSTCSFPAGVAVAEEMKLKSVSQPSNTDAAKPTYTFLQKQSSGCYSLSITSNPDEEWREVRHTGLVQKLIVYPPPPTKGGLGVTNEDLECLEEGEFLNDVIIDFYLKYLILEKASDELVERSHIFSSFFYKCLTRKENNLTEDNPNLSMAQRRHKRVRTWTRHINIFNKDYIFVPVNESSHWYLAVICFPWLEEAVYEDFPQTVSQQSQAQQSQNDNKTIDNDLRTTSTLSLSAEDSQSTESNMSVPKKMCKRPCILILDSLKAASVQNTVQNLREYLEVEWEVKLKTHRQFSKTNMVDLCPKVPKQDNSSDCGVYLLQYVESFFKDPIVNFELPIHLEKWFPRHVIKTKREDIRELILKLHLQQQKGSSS

[4] = target: T5, Sentrin-specific protease 6 (Homo sapiens, UniProt Q9GZR1); assay type: functional;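 further: Luminescence-based dose-response confirmatory assay of SENP6 inhibition, following up an ultra-high-throughput screen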
T5 sequence (Q9GZR1 whole entry): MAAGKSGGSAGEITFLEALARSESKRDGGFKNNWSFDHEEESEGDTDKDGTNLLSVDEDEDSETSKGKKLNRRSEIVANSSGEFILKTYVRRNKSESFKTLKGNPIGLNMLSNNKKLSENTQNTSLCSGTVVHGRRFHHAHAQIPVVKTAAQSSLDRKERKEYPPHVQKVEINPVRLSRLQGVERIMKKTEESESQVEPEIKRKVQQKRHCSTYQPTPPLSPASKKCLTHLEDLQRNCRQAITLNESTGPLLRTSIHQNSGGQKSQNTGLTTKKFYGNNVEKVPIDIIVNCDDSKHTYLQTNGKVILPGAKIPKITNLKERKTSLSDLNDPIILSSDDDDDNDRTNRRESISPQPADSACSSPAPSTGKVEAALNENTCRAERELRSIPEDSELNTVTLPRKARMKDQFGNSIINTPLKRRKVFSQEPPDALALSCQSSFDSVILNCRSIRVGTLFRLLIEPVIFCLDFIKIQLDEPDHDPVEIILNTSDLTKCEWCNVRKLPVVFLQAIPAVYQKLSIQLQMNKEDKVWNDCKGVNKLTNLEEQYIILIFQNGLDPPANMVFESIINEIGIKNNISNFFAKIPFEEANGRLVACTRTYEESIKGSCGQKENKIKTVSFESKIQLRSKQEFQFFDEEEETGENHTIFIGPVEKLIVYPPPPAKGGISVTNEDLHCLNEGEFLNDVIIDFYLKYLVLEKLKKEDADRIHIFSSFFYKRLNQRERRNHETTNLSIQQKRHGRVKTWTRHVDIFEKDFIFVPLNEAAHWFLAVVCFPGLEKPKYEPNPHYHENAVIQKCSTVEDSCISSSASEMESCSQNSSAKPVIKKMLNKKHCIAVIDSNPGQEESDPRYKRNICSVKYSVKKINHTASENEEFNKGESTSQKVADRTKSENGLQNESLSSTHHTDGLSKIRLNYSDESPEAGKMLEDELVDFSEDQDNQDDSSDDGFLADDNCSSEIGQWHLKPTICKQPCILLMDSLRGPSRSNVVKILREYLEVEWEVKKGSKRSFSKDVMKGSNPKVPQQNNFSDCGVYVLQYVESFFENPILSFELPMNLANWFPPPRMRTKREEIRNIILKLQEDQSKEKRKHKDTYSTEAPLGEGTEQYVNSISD

HeLa = experiment: ATP-based viability loss in HeLa cells – cell-based, CellTiter-Glo luminescence, cherry-pick samples, cytotoxicity control for MITF activator project, dose response (AID 540259); assay type: functional; conditions: Homo sapiens
[5] = target: T6, Type-1 angiotensin II receptor (Homo sapiens, UniProt P30556); experiment: antagonism of angiotensin II type 1 receptor – cell-based, uHTS hits, selectivity assay for APJ receptor antagonist project, dose response (AID 463214); assay type: functional;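 further: antagonist potency against angiotensin II stimulated AT1 response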
T6 sequence (P30556 whole entry): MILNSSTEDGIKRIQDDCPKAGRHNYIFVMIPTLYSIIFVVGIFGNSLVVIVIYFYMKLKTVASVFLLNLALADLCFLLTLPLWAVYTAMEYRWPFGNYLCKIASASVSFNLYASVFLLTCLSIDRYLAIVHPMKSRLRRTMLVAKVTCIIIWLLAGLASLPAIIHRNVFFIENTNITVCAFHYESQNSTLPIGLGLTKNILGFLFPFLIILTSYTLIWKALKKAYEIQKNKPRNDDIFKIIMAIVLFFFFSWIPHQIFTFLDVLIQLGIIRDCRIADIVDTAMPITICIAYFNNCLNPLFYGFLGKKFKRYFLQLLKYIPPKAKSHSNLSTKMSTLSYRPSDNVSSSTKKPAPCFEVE

Beta-galactosidase = Beta-galactosidase (Escherichia coli, UniProt Q8VNN2); experiment: PubChem AID 485352; assay type: functional
Chain of Beta-galactosidase (Q8VNN2 whole entry): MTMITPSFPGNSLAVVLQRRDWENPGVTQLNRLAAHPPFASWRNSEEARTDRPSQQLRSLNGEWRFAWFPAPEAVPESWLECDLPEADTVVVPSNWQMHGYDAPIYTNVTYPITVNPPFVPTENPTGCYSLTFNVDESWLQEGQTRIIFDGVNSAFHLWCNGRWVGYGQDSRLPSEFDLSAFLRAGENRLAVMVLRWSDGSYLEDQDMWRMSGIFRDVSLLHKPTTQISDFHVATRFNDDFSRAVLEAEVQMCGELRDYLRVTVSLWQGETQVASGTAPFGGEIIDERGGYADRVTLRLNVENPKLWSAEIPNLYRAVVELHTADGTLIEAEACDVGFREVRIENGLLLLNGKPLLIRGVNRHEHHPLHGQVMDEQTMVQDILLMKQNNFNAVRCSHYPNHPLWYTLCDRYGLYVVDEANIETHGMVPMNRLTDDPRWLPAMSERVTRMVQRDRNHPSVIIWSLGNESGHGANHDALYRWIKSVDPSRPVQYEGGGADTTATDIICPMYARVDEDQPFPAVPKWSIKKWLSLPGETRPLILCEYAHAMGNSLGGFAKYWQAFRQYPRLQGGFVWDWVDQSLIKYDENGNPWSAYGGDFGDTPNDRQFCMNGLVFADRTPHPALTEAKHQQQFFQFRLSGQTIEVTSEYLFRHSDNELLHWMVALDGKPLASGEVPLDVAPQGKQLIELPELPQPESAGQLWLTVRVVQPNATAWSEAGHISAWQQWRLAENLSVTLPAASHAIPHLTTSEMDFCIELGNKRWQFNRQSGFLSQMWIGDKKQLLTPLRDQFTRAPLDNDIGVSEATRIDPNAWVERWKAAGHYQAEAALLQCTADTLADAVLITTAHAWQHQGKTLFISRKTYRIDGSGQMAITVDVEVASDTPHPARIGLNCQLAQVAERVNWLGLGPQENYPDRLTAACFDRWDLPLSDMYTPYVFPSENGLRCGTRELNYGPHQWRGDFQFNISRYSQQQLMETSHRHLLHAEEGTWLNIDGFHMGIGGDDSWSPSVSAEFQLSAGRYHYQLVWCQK

Cysteine protease ATG4B = target: T7, Cysteine protease ATG4B (Homo sapiens, UniProt Q9Y4P1); assay type: functional;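 further: Fluorescence-based dose-response confirmation assay measuring inhibition of ATG4B activity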
T7 sequence (Q9Y4P1 whole entry): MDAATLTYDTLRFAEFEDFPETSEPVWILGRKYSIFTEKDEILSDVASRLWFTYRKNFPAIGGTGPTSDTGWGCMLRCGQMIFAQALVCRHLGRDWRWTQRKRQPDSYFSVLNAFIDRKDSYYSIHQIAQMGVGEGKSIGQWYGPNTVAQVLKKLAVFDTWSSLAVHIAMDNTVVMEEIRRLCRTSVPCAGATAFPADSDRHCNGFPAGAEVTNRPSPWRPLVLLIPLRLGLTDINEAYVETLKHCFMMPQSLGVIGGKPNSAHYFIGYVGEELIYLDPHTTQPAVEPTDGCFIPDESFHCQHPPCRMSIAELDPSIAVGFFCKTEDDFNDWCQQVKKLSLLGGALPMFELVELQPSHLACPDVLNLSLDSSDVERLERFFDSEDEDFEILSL

Phospholipase A2 = Phospholipase A2 (Homo sapiens, UniProt P04054); assay type: functional;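 further: confirmatory dose-response counterscreen on phospholipase A2, testing hits that came from an ultra-high-throughput screen for ATG4B inhibitors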
Chain of Phospholipase A2 (P04054 whole entry): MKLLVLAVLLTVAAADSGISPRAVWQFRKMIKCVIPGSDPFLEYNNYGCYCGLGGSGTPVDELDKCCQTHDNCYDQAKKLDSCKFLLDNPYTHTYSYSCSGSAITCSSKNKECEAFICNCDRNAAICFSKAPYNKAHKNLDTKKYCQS

[6] = target: T8, Endoribonuclease toxin MazF (Escherichia coli K-12, UniProt P0AE70); experiment: substrate-only fluorescence increase artefacts – biochemical, single-stranded RNase substrate, counter-screen for MazEF activator project, dose response (AID 588502); assay type: functional
T8 sequence (P0AE70 whole entry): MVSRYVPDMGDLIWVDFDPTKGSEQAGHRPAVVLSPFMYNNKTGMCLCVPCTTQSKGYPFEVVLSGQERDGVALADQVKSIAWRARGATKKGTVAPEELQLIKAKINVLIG

[7] = target: T8, Endoribonuclease toxin MazF; experiment: activation of MazEF endoribonuclease cleavage – biochemical, fluorescence, single-stranded RNA substrate, uHTS hits, dose response (AID 588481); assay type: functional

Chain of Cytochrome P450 3A4 (P08684 whole entry): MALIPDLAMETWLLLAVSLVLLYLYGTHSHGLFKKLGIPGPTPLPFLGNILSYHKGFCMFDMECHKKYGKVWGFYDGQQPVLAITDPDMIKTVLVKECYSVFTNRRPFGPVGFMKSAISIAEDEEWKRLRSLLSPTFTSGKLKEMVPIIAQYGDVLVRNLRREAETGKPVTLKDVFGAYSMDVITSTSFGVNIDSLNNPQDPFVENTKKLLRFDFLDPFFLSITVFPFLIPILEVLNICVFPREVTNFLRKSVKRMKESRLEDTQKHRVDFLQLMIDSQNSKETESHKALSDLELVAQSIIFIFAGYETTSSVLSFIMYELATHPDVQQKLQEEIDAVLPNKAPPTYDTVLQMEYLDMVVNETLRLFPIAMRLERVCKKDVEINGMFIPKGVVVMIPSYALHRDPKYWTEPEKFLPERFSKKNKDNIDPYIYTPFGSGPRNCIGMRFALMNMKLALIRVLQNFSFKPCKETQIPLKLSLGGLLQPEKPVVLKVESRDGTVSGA

Cc1cc(C)c(NC(=O)C2CCCN2C)c(C)c1 (stereo not given) was tested, and the AC50 (Cytochrome P450 3A4) was 25.1 µM (inconclusive), the IC50 (HEK293) was > 67.3 µM (inactive) and the AC50 (Cytochrome P450 2D6) was 28.2 µM (inconclusive). For the same compound, the IC50 [1] was > 67.3 µM (inactive).
Cc1ccc(C)c(NC(=O)c2cc(-c3cc(C)ccc3O)[nH]n2)c1 was tested, and the IC50 [2] was > 100 µM (inactive), the IC50 (Caspase-3) was 22.3 µM (active) and the IC50 [3] was 5.17 µM (active). The IC50 [4] was > 100 µM (inactive) and the AC50 (HeLa) was 41.9 µM (active).
O=C(COC(=O)c1cnccn1)c1ccc(Cl)c([N+](=O)[O-])c1 was tested, and the IC50 [5] was 12.5 µM (active) and the EC50 (Beta-galactosidase) was > 40 µM (inactive).
CCCC(=O)NC(=S)Nc1cccc(Cl)c1N1CCCCC1 was tested, and the IC50 (Cysteine protease ATG4B) was 9.11 µM (active) and the IC50 (Phospholipase A2) was 6.52 µM (active).
In the case of Cc1noc(C)c1S(=O)(=O)N1CCN(S(=O)(=O)c2ccccc2C#N)CC1, the IC50 (HEK293) is reported as > 67.5 µM (inactive) and the IC50 [1] is reported as > 67.5 µM (inactive).
Cc1ccc(C(=O)NN=C(S)Nc2cccc(Cl)c2Cl)cc1[N+](=O)[O-] was tested, and the IC50 (Cysteine protease ATG4B) was 20.8 µM (inactive) and the IC50 (Phospholipase A2) was 13.3 µM (active).
In the case of CCC(C)N(C(=O)COc1ccc(Br)cc1C=O)C1CCS(=O)(=O)C1 (stereo not given), the IC50 (Cysteine protease ATG4B) is reported as 10.1 µM (active) and the IC50 (Phospholipase A2) is reported as 8.26 µM (active).
COc1ccc(C)cc1Nc1n[n+](-c2ccccc2)c(-c2cc([N+](=O)[O-])cc(OC)c2O)s1 was tested, and the EC50 [6] was 58.4 µM (inactive) and the EC50 [7] was 23.5 µM (inactive).
With Cc1ccc(C(=O)COC(=O)CNC(=O)c2ccc(Br)o2)cc1[N+](=O)[O-] the IC50 [5] was > 40 µM (not active) and the EC50 (Beta-galactosidase) was > 40 µM (inactive).
For FC(F)(F)c1cnc(NNC(=S)Nc2cccnc2)c(Cl)c1, the IC50 [5] was 15.1 µM (active) and the EC50 (Beta-galactosidase) was > 40 µM (inactive).
